Measurements: patent US20250090699A1, “FAP TARGETING CYCLIC PEPTIDES AND CONJUGATES THEREOF” (Novartis AG, priority 2023, published 2025)
pIC50, pKd: −log10 of the molar value. Structures can show the parent of a compound that is named as a salt. Starred links: 1 amine or outer side, 2 acyl side, 3 side chain; linkers in the order of their positions; H or OH if unused. Non-standard residues stand in square brackets, D forms with d. Residues, ends and D or L forms follow the SMILES beside them. Groups on a side chain read outwards from the residue. *: point of attachment. AAZTA5 = O=C(O)CN1CCN(CC(=O)O)CC(CCCCC(=O)*)(N(CC(=O)O)CC(=O)O)C1; Phe(4-CH2NH2) = NCc1ccc(C[C@H](N)C(=O)O)cc1; Piperazinyl(4-CH2COOH) = O=C(O)CN1CCN(*)CC1; Nicotinoyl(6-F) = O=C(c1ccc(F)nc1)*; NMeF = CN[C@@H](Cc1ccccc1)C(=O)O; Ahp(2) = CCCCC[C@H](N)C(=O)O; hSer = N[C@@H](CCO)C(=O)O; AEEA = NCCOCCOCC(=O)O; CO = O=C([*:1])[*:2]; Propyl = CCC*

Experiments:
mouse FAP [1] = biological target: T1, mouse FAP (Mus musculus, UniProt P97321); experiment: Surface plasmon resonance (SPR) for peptide affinity, mouse FAP; assay type: binding
T1 construct: biotinylated His, Avi tag, mouse FAP (26-761, FAP-M82Q5); His; Avi tag (biotinylated); purchased AcroBiosystems FAP-M82Q5
T1 sequence (P97321 26-761): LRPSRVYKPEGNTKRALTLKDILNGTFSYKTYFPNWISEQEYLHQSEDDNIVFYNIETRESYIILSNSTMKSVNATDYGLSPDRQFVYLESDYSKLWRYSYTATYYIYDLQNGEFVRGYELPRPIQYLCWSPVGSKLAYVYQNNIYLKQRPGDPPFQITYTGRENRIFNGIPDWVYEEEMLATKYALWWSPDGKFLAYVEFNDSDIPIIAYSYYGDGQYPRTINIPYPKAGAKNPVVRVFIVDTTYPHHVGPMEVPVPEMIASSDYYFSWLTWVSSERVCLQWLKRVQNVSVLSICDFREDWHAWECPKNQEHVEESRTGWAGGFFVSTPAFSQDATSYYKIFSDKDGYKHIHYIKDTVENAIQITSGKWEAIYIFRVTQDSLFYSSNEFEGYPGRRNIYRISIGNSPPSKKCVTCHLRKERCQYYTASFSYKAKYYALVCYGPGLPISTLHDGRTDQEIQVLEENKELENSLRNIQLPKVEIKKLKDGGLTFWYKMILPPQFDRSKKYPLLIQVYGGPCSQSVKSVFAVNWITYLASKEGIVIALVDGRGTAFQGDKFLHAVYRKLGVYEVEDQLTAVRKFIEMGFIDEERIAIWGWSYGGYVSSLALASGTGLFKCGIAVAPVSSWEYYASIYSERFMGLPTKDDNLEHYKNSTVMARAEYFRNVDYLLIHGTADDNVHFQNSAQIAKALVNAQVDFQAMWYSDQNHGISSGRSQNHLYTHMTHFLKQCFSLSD
Method in brief: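 KD values come from a 1:1 kinetic fit of single-cycle SPR data: 8 peptide concentrations, 25 °C, 30 μL/min, HEPES-buffered saline pH 7.6 with 2% DMSO. Targets were His/Avi-tagged human (26-760) or mouse (26-761) FAP, amine-coupled to CM5 or held on a CAPture chip.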

human FAP [2] = biological target: T2, human FAP (Homo sapiens, UniProt Q12884); experiment: Enzymatic FAP competition assay (Z-Gly-Pro-AMC fluorescence), human FAP; assay type: biochemical; conditions: read-out: h. FAP, Enz., IC50
T2 construct: the biotinylated His, Avi tag, human FAP (26-760, FAP-H82Q6); His; Avi tag (biotinylated); purchased AcroBiosystems FAP-H82Q6
T2 sequence (Q12884 26-760): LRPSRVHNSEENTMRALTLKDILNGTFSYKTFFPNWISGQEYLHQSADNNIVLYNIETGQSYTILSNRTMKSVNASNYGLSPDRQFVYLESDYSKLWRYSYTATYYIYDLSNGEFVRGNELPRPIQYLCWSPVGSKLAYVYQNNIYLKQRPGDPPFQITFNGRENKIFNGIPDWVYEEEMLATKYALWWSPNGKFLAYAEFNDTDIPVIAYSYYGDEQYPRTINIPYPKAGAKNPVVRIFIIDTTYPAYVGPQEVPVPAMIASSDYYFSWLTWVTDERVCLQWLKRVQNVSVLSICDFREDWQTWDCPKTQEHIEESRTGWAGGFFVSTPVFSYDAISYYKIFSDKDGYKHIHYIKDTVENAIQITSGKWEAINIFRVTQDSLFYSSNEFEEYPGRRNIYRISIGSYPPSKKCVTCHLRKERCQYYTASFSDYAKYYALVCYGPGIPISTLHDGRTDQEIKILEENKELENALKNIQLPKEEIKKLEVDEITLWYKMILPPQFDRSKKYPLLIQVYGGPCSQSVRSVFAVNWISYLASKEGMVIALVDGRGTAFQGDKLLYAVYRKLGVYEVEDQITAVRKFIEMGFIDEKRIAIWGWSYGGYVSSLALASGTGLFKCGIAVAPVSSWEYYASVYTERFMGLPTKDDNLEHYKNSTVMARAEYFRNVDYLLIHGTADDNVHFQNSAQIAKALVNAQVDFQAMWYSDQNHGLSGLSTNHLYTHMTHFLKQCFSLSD
Method in brief: (§1)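 IC50 values come from curve fitting of duplicate % inhibition data on AMC fluorescence (ex 380, em 460 nm) after 4 h at 22-24° C with 50 μM Z-Gly-Pro-AMC. Beforehand, peptides up to 1 μM (14 levels) sat 24 h with 0.01 nM human (26-760) or mouse (26-761) tagged FAP in phosphate buffer pH 7.5, NaCl, Tween20, 1% DMSO.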

human FAP [3] = biological target: T2, human FAP; experiment: Surface plasmon resonance (SPR) for peptide affinity, human FAP; assay type: binding; conditions: read-out: h. FAP, SPR, KD
Description: Peptide affinities (KD) were determined by SPR using a Biacore™ 8K device (Cytiva) towards the following proteins: biotinylated His, Avi tag, human FAP (26-760, FAP-H82Q6), biotinylated His, Avi tag, mouse FAP (26-761, FAP-M82Q5), His tag, human DPP4 (34-766, DP4-H82E3), all purchased from AcroBiosystems and His tag, mouse DPP4 (29-760, 954-SE) from R&D Systems. The FAP proteins and their homologous were diluted to a concentration of 2 μg/mL into acetate buffer pH 5.5, then immobilized onto a CM5 sensorchip (Cytiva, BR-1005-30) to reach a response around 2000 R U. The running buffer HBS-EP+pH 7.6 (20× from Teknova CAT. No: H8022) contained 10 mM HEPES pH 7.6, 150 mM NaCl, 3 mM EDTA, 0.05% Tween20 and 2% DMSO. Experiments were carried out at 25° C. using a flow rate of 30 μL/min. Compounds were tested in single cycle kinetic mode at 8 different concentrations. Curve fitting was performed using the Biacore™ 8K evaluation software. The sensorgrams were fitted by applying a 1:1 binding model to calculate kinetic rate constants and equilibrium dissociation constants (KD).
For this assay, the setup had the same conditions (flow rate, running buffer, peptide dilution) as described above for the CM5 method. The oligo CAP reagent obtained in the CAPture Kit (Ref. 28920234) was 1/5 diluted into running buffer and used with a contact time of 300 s at a flow rate of 2 μL/min. The human and mouse FAP constructs described above were used (from AcroBiosystems or produced in house). The FAP proteins were diluted to a concentration of 2 μg/mL into acetate pH 5.5, 0.05% Tween20 and used with a contact time of 600 s at a flow rate of 10 μL/min. The peptides were tested with an association time of 280 s followed by a dissociation time of 3000 s at a flow rate of 30 μL/min. The regeneration was done using the regeneration solution (8 M guanidine-HCl, 1 M NaOH) as obtained with a contact time of 270 s at a flow rate of 10 μL/min. […] The compounds marked with an asterisk were tested against human and mouse DDP4.

mouse FAP [4] = biological target: T1, mouse FAP; experiment: Enzymatic FAP competition assay (Z-Gly-Pro-AMC fluorescence), mouse FAP; assay type: biochemical; conditions: read-out: m. FAP, Enz., IC50
Method in brief: as §1

pKd (mouse FAP [1])	pIC50 (human FAP [2])	pKd (human FAP [3])	pIC50 (mouse FAP [4])	SMILES
> 10.64	11.05	> 11.15	10.43	CCCOCC[C@@H]1NC(=O)[C@H](Cc2ccc(CNC(=O)COCCOCCNC(=O)c3ccc(F)nc3)cc2)NC(=O)[C@H](Cc2ccccc2)N(C)C(=O)CNC(=O)CNC(=O)[C@H]2CCCN2C(=O)[C@H](CC(=O)O)NC(=O)[C@H](CCCCNC(=O)N2CCN(CC(=O)O)CC2)NC(=O)CNC(=O)[C@H](Cc2c[nH]c3ccccc23)NC1=O [Example C56, Gly-Gly-NMePhe-F(4amPEG2NHCOPy3(4F))-hS(Pr)-Trp-Gly-K(Copipzaa)-Asp-D-Pro] (cyclo(D[dP]GG[NMeF][Phe(4-CH2NH2)]([AEEA-Nicotinoyl(6-F)])[hSer](Propyl)WGK([CO-Piperazinyl(4-CH2COOH)])))
9.73	9.93	9.79	9.40	CCCCC[C@@H]1NC(=O)[C@H](Cc2ccc(O)cc2)NC(=O)[C@H](Cc2ccccc2)N(C)C(=O)CNC(=O)[C@@H]2CCCN2C(=O)[C@H]2CCCN2C(=O)[C@H](CC(=O)O)NC(=O)[C@H](Cc2ccc(O)cc2)NC(=O)CNC(=O)[C@H](Cc2c[nH]c3ccccc23)NC1=O [Example A51, 2-((6S,9S,15S,18S,21S,24S,29aS,34aR)-15-((1H-indol-3-yl)methyl)-24-benzyl-9,21-bis(4-hydroxybenzyl)-25-methyl-5,8,11,14,17,20,23,26,29,34-decaoxo-18-pentyldotriacontahydro-1H,5H-dipyrrolo[1,2-a:1′,2′-b1][1,4,7,10,13,16,19,22,25,28]decaazacyclotriacontin-6-yl)acetic acid] (cyclo(G[NMeF]Y[Ahp(2)]WGYD[dP]P))
9.60	10.52	–	10.00	CCCOCC[C@@H]1NC(=O)[C@H](Cc2ccc(CNC(=O)COCCOCCNC(=O)CCCCC3(N(CC(=O)O)CC(=O)O)CN(CC(=O)O)CCN(CC(=O)O)C3)cc2)NC(=O)[C@H](Cc2ccccc2)N(C)C(=O)CNC(=O)CNC(=O)[C@H]2CCCN2C(=O)[C@H](CC(=O)O)NC(=O)[C@H](CCCCNC(=O)N2CCN(CC(=O)O)CC2)NC(=O)CNC(=O)[C@H](Cc2c[nH]c3ccccc23)NC1=O [Example B31, Gly-Gly-NMePhe-F(4amPEG2NHAAZTA)-hS(Pr)-Trp-Gly-K(COpipzaa)-Asp-D-Pro] (cyclo(D[dP]GG[NMeF][Phe(4-CH2NH2)]([AEEA-AAZTA5])[hSer](Propyl)WGK([CO-Piperazinyl(4-CH2COOH)])))

SMILES	pKd (mouse FAP [1])	pIC50 (human FAP [2])	pKd (human FAP [3])	pIC50 (mouse FAP [4])
CCCOCC[C@@H]1NC(=O)[C@H](Cc2ccc(CNC(=O)COCCOCCN)cc2)NC(=O)[C@H](Cc2ccccc2)N(C)C(=O)CNC(=O)CNC(=O)[C@H]2CCCN2C(=O)[C@H](CC(=O)O)NC(=O)[C@H](CCCCNC(=O)N2CCN(CC(=O)O)CC2)NC(=O)CNC(=O)[C@H](Cc2c[nH]c3ccccc23)NC1=O [Example A2, 2-((9S,12S,15S,18S,24S,27S,32aR)-18-((1H-indol-3-yl)methyl)-12-(4-((2-(2-(2-aminoethoxy)ethoxy)acetamido)methyl)benzyl)-9-benzyl-24-(4-(4-(carboxymethyl)piperazine-1-carboxamido)butyl)-8-methyl-1,4,7,10,13,16,19,22,25,28-decaoxo-15-(2-propoxyethyl)dotriacontahydropyrrolo[1,2-a][1,4,7,10,13,16,19,22,25,28]decaazacyclotriacontin-27-yl)acetic acid TFA salt] (cyclo(D[dP]GG[NMeF][Phe(4-CH2NH2)](AEEA)[hSer](Propyl)WGK([CO-Piperazinyl(4-CH2COOH)])))	> 10.64	10.92	> 10.96	10.33
